# Test results reported in article PMC6409085, “Three odorant-binding proteins are involved in the behavioral response of Sogatella furcifera to rice plant volatiles” (PeerJ, 2019).
# Values joined by “and” are separate entries in the source; they are usually repeats but may differ in a detail not shown here. Equal entries are not always repeated.
# Key:
# SfurOBP11 = SfurOBP11 (Sogatella furcifera, UniProt V5T6E3); experiment: biochemical; type: binding
# In short: (§1)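 Fluorescence competitive binding with 1-NPN as reporter: 2.0 µM protein and 2.0 µM 1-NPN in 50 mM Tris-HCl pH 7.4, odorant added at 2–20 µM final. Excitation 337 nm, emission 390–490 nm read 2 min after addition, triplicates. Ki = IC50/(1 + [1-NPN]/K1-NPN).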
# SfurOBP1 = SfurOBP1 (Sogatella furcifera, UniProt V5T8N5); experiment: biochemical; type: binding; details: for Fluorescence competitive binding assay, fluorescence intensity: OBP1, three replicate columns
# SfurOBP1, sequence (V5T8N5 entry or part of it): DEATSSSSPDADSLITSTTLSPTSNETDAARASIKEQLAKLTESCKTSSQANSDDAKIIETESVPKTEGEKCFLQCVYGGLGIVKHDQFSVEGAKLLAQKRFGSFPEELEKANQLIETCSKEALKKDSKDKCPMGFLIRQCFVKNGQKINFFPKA
# In short: as §1
# SfurOBP3 = SfurOBP3 (Sogatella furcifera, UniProt V5T818); experiment: biochemical; type: binding; details: for Fluorescence competitive binding assay, fluorescence intensity: OBP3, three replicate columns
# SfurOBP3, sequence (V5T818 entry or part of it): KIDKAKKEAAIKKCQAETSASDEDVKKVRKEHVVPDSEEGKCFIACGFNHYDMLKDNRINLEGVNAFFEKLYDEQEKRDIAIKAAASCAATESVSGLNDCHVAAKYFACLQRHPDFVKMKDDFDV
# In short: as §1
# SfurOBP2 = SfurOBP2 (Sogatella furcifera, UniProt V5T759); experiment: biochemical; type: binding
# SfurOBP2, sequence (V5T759 entry or part of it): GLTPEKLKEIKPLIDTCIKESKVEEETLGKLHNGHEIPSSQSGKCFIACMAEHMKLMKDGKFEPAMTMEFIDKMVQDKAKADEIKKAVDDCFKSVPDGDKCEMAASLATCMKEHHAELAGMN
# In short: as §1
# S. furcifera adults = experiment: Y-tube olfactometer behavioral trials; type: in vivo, Sogatella furcifera; details: odorant 50 µL/L vs hexane; adults
# Description: To test the effect of the rice odorants on the behavior of S. furcifera adults, a glass Y-tube olfactometer (inner diameter 2.0 cm, stem 13 cm, arms 10 cm, angle of arms 60°) according to the previously described ([Wang et al., 2014b]) was employed. An airtight cubic box (70 by 45 by 30 cm) was used to position Y-tube, and the Y-tube was lighted by a 30-W filament lamp 25 cm above it. Air that filtered through activated charcoal and humidified with doubly distilled water was pumped in both arms at a flow rate of 300 mL/min. Two filter paper strips (10 by 1 cm) containing 100 µL odorant source (50 µL/L) and 100 µL control hexane were placed in two holding chambers in the front of the olfactometer, respectively. A S. furcifera adult (2 days after emergence, starved for 0.5 h) was randomly chosen and placed in the stem of the Y-tube. Each insect was given 10 min to choose between the two arms of the Y-tube, the choice was noted if the planthopper reached one-half of the arms’ lengths and stayed in the arm for more than 1 min. Besides, S. furcifera was considered as having no orientation preference. Forty-five individuals were used for each compound, each insect used only once. And the dual-choice experiment was done in an environmentally controlled room (25 ± 1 °C and 50% RH). A Chi-squared test was used to analyze the behavioral assay data by using SPSS19.0 (SPSS Inc., Chicago, IL, USA) software.
# SfurOBP11, sequence (V5T6E3 entry or part of it): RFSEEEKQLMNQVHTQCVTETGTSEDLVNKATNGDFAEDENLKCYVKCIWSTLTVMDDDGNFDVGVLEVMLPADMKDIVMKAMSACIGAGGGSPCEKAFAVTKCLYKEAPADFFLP
substance,measurement,setting,value
2-heptanonol,IC50,"SfurOBP11; SfurOBP11, protein and 1-NPN both 2.0 µM, competitor 2-20 µM, read-out: IC50",> 20 µM
same,"Fluorescence intensity, fluorescence competitive binding assay, OBP11","SfurOBP11; ligand concentration 2, replicate 1",32214
same,"Fluorescence intensity, fluorescence competitive binding assay, OBP11","SfurOBP11; ligand concentration 2, replicate 2",33277
same,"Fluorescence intensity, fluorescence competitive binding assay, OBP11","SfurOBP11; ligand concentration 2, replicate 3",35354
same,"Fluorescence intensity, fluorescence competitive binding assay, OBP11","SfurOBP11; ligand concentration 4, replicate 1",33125
same,"Fluorescence intensity, fluorescence competitive binding assay, OBP11","SfurOBP11; ligand concentration 4, replicate 2",35054
same,"Fluorescence intensity, fluorescence competitive binding assay, OBP11","SfurOBP11; ligand concentration 4, replicate 3",33696
same,"Fluorescence intensity, fluorescence competitive binding assay, OBP11","SfurOBP11; ligand concentration 6, replicate 1",31772
same,"Fluorescence intensity, fluorescence competitive binding assay, OBP11","SfurOBP11; ligand concentration 6, replicate 2",31091
same,"Fluorescence intensity, fluorescence competitive binding assay, OBP11","SfurOBP11; ligand concentration 6, replicate 3",33532
same,"Fluorescence intensity, fluorescence competitive binding assay, OBP11","SfurOBP11; ligand concentration 8, replicate 1",28812
same,"Fluorescence intensity, fluorescence competitive binding assay, OBP11","SfurOBP11; ligand concentration 8, replicate 2",31104
same,"Fluorescence intensity, fluorescence competitive binding assay, OBP11","SfurOBP11; ligand concentration 8, replicate 3",31825
same,"Fluorescence intensity, fluorescence competitive binding assay, OBP11","SfurOBP11; ligand concentration 10, replicate 1",28521
same,"Fluorescence intensity, fluorescence competitive binding assay, OBP11","SfurOBP11; ligand concentration 10, replicate 2",30054
same,"Fluorescence intensity, fluorescence competitive binding assay, OBP11","SfurOBP11; ligand concentration 10, replicate 3",29747
same,"Fluorescence intensity, fluorescence competitive binding assay, OBP11","SfurOBP11; ligand concentration 12, replicate 1",26176
same,"Fluorescence intensity, fluorescence competitive binding assay, OBP11","SfurOBP11; ligand concentration 12, replicate 2",26507
same,"Fluorescence intensity, fluorescence competitive binding assay, OBP11","SfurOBP11; ligand concentration 12, replicate 3",26325
same,"Fluorescence intensity, fluorescence competitive binding assay, OBP11","SfurOBP11; ligand concentration 14, replicate 1",24809
same,"Fluorescence intensity, fluorescence competitive binding assay, OBP11","SfurOBP11; ligand concentration 14, replicate 2",27546
same,"Fluorescence intensity, fluorescence competitive binding assay, OBP11","SfurOBP11; ligand concentration 14, replicate 3",28489
same,"Fluorescence intensity, fluorescence competitive binding assay, OBP11","SfurOBP11; ligand concentration 16, replicate 1",22169
same,"Fluorescence intensity, fluorescence competitive binding assay, OBP11","SfurOBP11; ligand concentration 16, replicate 2",21457
same,"Fluorescence intensity, fluorescence competitive binding assay, OBP11","SfurOBP11; ligand concentration 16, replicate 3",24839
same,"Fluorescence intensity, fluorescence competitive binding assay, OBP11","SfurOBP11; ligand concentration 18, replicate 1",29523
same,"Fluorescence intensity, fluorescence competitive binding assay, OBP11","SfurOBP11; ligand concentration 18, replicate 2",28673
same,"Fluorescence intensity, fluorescence competitive binding assay, OBP11","SfurOBP11; ligand concentration 18, replicate 3",27420
same,"Fluorescence intensity, fluorescence competitive binding assay, OBP11","SfurOBP11; ligand concentration 20, replicate 1",25385
same,"Fluorescence intensity, fluorescence competitive binding assay, OBP11","SfurOBP11; ligand concentration 20, replicate 2",25884
same,"Fluorescence intensity, fluorescence competitive binding assay, OBP11","SfurOBP11; ligand concentration 20, replicate 3",25605
same,"Fluorescence competitive binding assay, fluorescence intensity",SfurOBP1; ligand concentration 2 (μM),5887 and 5646 and 5767
same,"Fluorescence competitive binding assay, fluorescence intensity",SfurOBP1; ligand concentration 4 (μM),7288 and 7577 and 6996
same,"Fluorescence competitive binding assay, fluorescence intensity",SfurOBP1; ligand concentration 6 (μM),5995 and 5950 and 6027
same,"Fluorescence competitive binding assay, fluorescence intensity",SfurOBP1; ligand concentration 8 (μM),7072 and 6140 and 5704
same,"Fluorescence competitive binding assay, fluorescence intensity",SfurOBP1; ligand concentration 10 (μM),8690 and 6215 and 5653
same,"Fluorescence competitive binding assay, fluorescence intensity",SfurOBP1; ligand concentration 12 (μM),7048 and 7677 and 6537
same,"Fluorescence competitive binding assay, fluorescence intensity",SfurOBP1; ligand concentration 14 (μM),6232 and 8602 and 7115
same,"Fluorescence competitive binding assay, fluorescence intensity",SfurOBP1; ligand concentration 16 (μM),5533 and 5298 and 5778
same,"Fluorescence competitive binding assay, fluorescence intensity",SfurOBP1; ligand concentration 18 (μM),5895 and 6061 and 6136
same,"Fluorescence competitive binding assay, fluorescence intensity",SfurOBP1; ligand concentration 20 (μM),5784 and 5580 and 5212
same,IC50,"SfurOBP1; SfurOBP1, protein and 1-NPN both 2.0 µM, competitor 2-20 µM, read-out: IC50",> 20 µM
same,"Fluorescence competitive binding assay, fluorescence intensity",SfurOBP3; ligand concentration 2,45232 and 45869 and 44594
same,"Fluorescence competitive binding assay, fluorescence intensity",SfurOBP3; ligand concentration 4,45996 and 44453 and 43020
same,"Fluorescence competitive binding assay, fluorescence intensity",SfurOBP3; ligand concentration 6,47391 and 47743 and 47567
same,"Fluorescence competitive binding assay, fluorescence intensity",SfurOBP3; ligand concentration 8,48801 and 50407 and 49604
same,"Fluorescence competitive binding assay, fluorescence intensity",SfurOBP3; ligand concentration 10,51610 and 62768 and 47878
same,"Fluorescence competitive binding assay, fluorescence intensity",SfurOBP3; ligand concentration 12,54498 and 52011 and 51877
same,"Fluorescence competitive binding assay, fluorescence intensity",SfurOBP3; ligand concentration 14,42842 (2×) and 42142
same,"Fluorescence competitive binding assay, fluorescence intensity",SfurOBP3; ligand concentration 16,41166 and 44357 and 42754
same,"Fluorescence competitive binding assay, fluorescence intensity",SfurOBP3; ligand concentration 18,42621 and 43724 and 41536
same,"Fluorescence competitive binding assay, fluorescence intensity",SfurOBP3; ligand concentration 20,45786 and 37456 and 39383
same,IC50,"SfurOBP3; SfurOBP3, protein and 1-NPN both 2.0 µM, competitor 2-20 µM, read-out: IC50",> 20 µM
same,IC50,"SfurOBP2; SfurOBP2, protein and 1-NPN both 2.0 µM, competitor 2-20 µM, read-out: IC50",> 20 µM
same,"Fluorescence competitive binding assay, OBP2 (raw fluorescence reading)","SfurOBP2; ligand concentration 2 (unit not given), replicate column 1 of 3",18612
same,"Fluorescence competitive binding assay, OBP2 (raw fluorescence reading)","SfurOBP2; ligand concentration 2 (unit not given), replicate column 2 of 3",18747
same,"Fluorescence competitive binding assay, OBP2 (raw fluorescence reading)","SfurOBP2; ligand concentration 2 (unit not given), replicate column 3 of 3",19681
same,"Fluorescence competitive binding assay, OBP2 (raw fluorescence reading)","SfurOBP2; ligand concentration 4 (unit not given), replicate column 1 of 3",19302
same,"Fluorescence competitive binding assay, OBP2 (raw fluorescence reading)","SfurOBP2; ligand concentration 4 (unit not given), replicate column 2 of 3",19993
same,"Fluorescence competitive binding assay, OBP2 (raw fluorescence reading)","SfurOBP2; ligand concentration 4 (unit not given), replicate column 3 of 3",20683
same,"Fluorescence competitive binding assay, OBP2 (raw fluorescence reading)","SfurOBP2; ligand concentration 6 (unit not given), replicate column 1 of 3",18811
same,"Fluorescence competitive binding assay, OBP2 (raw fluorescence reading)","SfurOBP2; ligand concentration 6 (unit not given), replicate column 2 of 3",18736
same,"Fluorescence competitive binding assay, OBP2 (raw fluorescence reading)","SfurOBP2; ligand concentration 6 (unit not given), replicate column 3 of 3",18774
same,"Fluorescence competitive binding assay, OBP2 (raw fluorescence reading)","SfurOBP2; ligand concentration 8 (unit not given), replicate column 1 of 3",16468
same,"Fluorescence competitive binding assay, OBP2 (raw fluorescence reading)","SfurOBP2; ligand concentration 8 (unit not given), replicate column 2 of 3",16720
same,"Fluorescence competitive binding assay, OBP2 (raw fluorescence reading)","SfurOBP2; ligand concentration 8 (unit not given), replicate column 3 of 3",16981
same,"Fluorescence competitive binding assay, OBP2 (raw fluorescence reading)","SfurOBP2; ligand concentration 10 (unit not given), replicate column 1 of 3",16986
same,"Fluorescence competitive binding assay, OBP2 (raw fluorescence reading)","SfurOBP2; ligand concentration 10 (unit not given), replicate column 2 of 3",17111
same,"Fluorescence competitive binding assay, OBP2 (raw fluorescence reading)","SfurOBP2; ligand concentration 10 (unit not given), replicate column 3 of 3",16240
same,"Fluorescence competitive binding assay, OBP2 (raw fluorescence reading)","SfurOBP2; ligand concentration 12 (unit not given), replicate column 1 of 3",16820
same,"Fluorescence competitive binding assay, OBP2 (raw fluorescence reading)","SfurOBP2; ligand concentration 12 (unit not given), replicate column 2 of 3",17596
same,"Fluorescence competitive binding assay, OBP2 (raw fluorescence reading)","SfurOBP2; ligand concentration 12 (unit not given), replicate column 3 of 3",18083
same,"Fluorescence competitive binding assay, OBP2 (raw fluorescence reading)","SfurOBP2; ligand concentration 14 (unit not given), replicate column 1 of 3",17387
same,"Fluorescence competitive binding assay, OBP2 (raw fluorescence reading)","SfurOBP2; ligand concentration 14 (unit not given), replicate column 2 of 3",16676
same,"Fluorescence competitive binding assay, OBP2 (raw fluorescence reading)","SfurOBP2; ligand concentration 14 (unit not given), replicate column 3 of 3",18097
same,"Fluorescence competitive binding assay, OBP2 (raw fluorescence reading)","SfurOBP2; ligand concentration 16 (unit not given), replicate column 1 of 3",16472
same,"Fluorescence competitive binding assay, OBP2 (raw fluorescence reading)","SfurOBP2; ligand concentration 16 (unit not given), replicate column 2 of 3",16454
same,"Fluorescence competitive binding assay, OBP2 (raw fluorescence reading)","SfurOBP2; ligand concentration 16 (unit not given), replicate column 3 of 3",17500
same,"Fluorescence competitive binding assay, OBP2 (raw fluorescence reading)","SfurOBP2; ligand concentration 18 (unit not given), replicate column 1 of 3",16574
same,"Fluorescence competitive binding assay, OBP2 (raw fluorescence reading)","SfurOBP2; ligand concentration 18 (unit not given), replicate column 2 of 3",16302
same,"Fluorescence competitive binding assay, OBP2 (raw fluorescence reading)","SfurOBP2; ligand concentration 18 (unit not given), replicate column 3 of 3",16787
same,"Fluorescence competitive binding assay, OBP2 (raw fluorescence reading)","SfurOBP2; ligand concentration 20 (unit not given), replicate column 1 of 3",15630
same,"Fluorescence competitive binding assay, OBP2 (raw fluorescence reading)","SfurOBP2; ligand concentration 20 (unit not given), replicate column 2 of 3",15665
same,"Fluorescence competitive binding assay, OBP2 (raw fluorescence reading)","SfurOBP2; ligand concentration 20 (unit not given), replicate column 3 of 3",15648
same,number of insects choosing hexane arm,S. furcifera adults,13
same,number of insects choosing volatilies arm,S. furcifera adults,16
same,number of insects failed (no choice),S. furcifera adults,13
